Measured values: patent publication US12139487B2, “Compounds and uses thereof” (Foghorn Therapeutics Inc., priority 2022, dated 2024)

Test system: BRM-dependent transcription (BRG1 mutant lung cancer cell line A549)
Assay: BRM-dependent transcription, MMTV luciferase reporter in BRG1 mutant A549 cells
Assay type: cell-based
Settings: Table 11; for IC50: Homo sapiens, A549, 6 h, A549-MMTV luciferase reporter, dexamethasone induced, 6 hours; for Ratio (MDA-MMTV IC50 (μM) divided by A549-MMTV IC50 (μM)): MMTV luciferase reporter cell lines, selectivity BRG1/BRM
Method: The potential inhibitory effects of compounds on BRG1 and BRM dependent transcription was study by testing the activity of against the BRG1 mutant lung cancer cell line A549 and a MDA cell line with BRM removed by CRISPR. Both cell lines were genetically engineered with a BRG1 or BRM-dependent mouse mammary tumor virus luciferase reporter. Luciferase transcription was induced by dexamethasone in the presence of compound at different concentrations and luminescence was measured using a plate reader 6 hours after stimulation.

Row | IC50 | Ratio (MDA-MMTV IC50 (μM) divided by A549-MMTV IC50 (μM)) | SMILES
1 | 13.8 nM | 25.74 | CC(C)c1ccc(-c2ccc3cnc(CNC(=O)c4cc(F)c5c(c4)S(=O)(=O)[C@@H](F)CCO5)cc3n2)nc1C1CC1 [Compound 396]
2 | 5.3 nM | 29.48 | Cc1cc(C(=O)NCc2cc3nc(-c4ccc(C(F)F)c(C5CC5)n4)ccc3cn2)cc2c1COC[C@H](F)S2(=O)=O [Compound 397]
3 | 12.9 nM | 24.67 | O=C(NCc1cc2nc(-c3ccc(C(F)F)c(C4CC4(F)F)n3)ccc2cn1)c1cc(F)c2c(c1)S(=O)(=O)[C@@H](F)CCO2 (stereo partly shown) [Compound 399]
4 | 25.1 nM | 47.75 | O=C(NCc1cc2nc(-c3ccc(OC(F)F)c(C4CC4)n3)ccc2cn1)c1cc(Br)c2c(c1)S(=O)(=O)[C@@H](F)CCO2 [Compound 400]
5 | 21.7 nM | 26.98 | CC(C)c1ccc(-c2ccc3cnc(CNC(=O)c4cc(Br)c5c(c4)S(=O)(=O)[C@@H](F)CCO5)cc3n2)c(OC(F)F)n1 [Compound 402]
6 | 14 nM | 27.49 | COC1(c2cccc(-c3ccc4cnc(CNC(=O)c5cc(F)c6c(c5)S(=O)(=O)[C@@H](F)CCO6)cc4n3)n2)CC1 [Compound 403]
7 | 15.6 nM | 36.02 | O=C(NCc1cc2nc(-c3cccc(OC(F)F)n3)ccc2cn1)c1cc(C(F)F)c2c(c1)S(=O)(=O)[C@@H](F)COC2 [Compound 404]
8 | 2.8 nM | 22.10 | C[C@@H]1CN(c2cccc(-c3cnc4cnc(CNC(=O)c5cc(F)c6c(c5)S(=O)(=O)[C@@H](F)CCO6)cc4n3)n2)C[C@H](C)O1 [Compound 405, (4R)—N-[[2-[6-[(2R,6S)-2,6-dimethylmorpholin-4-yl]-2-pyridyl]pyrido[3,4-b]pyrazin-7-yl]methyl]-4,9-difluoro-5,5-dioxo-3,4-dihydro-2H-1,5λ6-benzoxathiepine-7-carboxamide]
9 | 5.9 nM | 27.42 | O=C(NCc1cc2nc(-c3ccc([C@@H](F)CF)c(C4CC4)n3)ccc2cn1)c1cc(F)c2c(c1)S(=O)(=O)[C@@H](F)CCO2 [Compound 406]
10 | 11.7 nM | 29.00 | C=Cc1cc(C(=O)NCc2cc3nc(-c4cccc(N5C[C@@H](C)O[C@@H](C)C5)n4)ccc3cn2)cc2c1OCC[C@H](F)S2(=O)=O [Compound 407]
11 | 16.5 nM | 32.34 | O=C(NCc1cc2nc(-c3ccc(OC(F)F)c(C4CC4)n3)ccc2cn1)c1cc(Br)c2c(c1)S(=O)(=O)[C@@H](F)COC2 [Compound 408]
12 | 14.1 nM | 25.36 | COc1nc(OC(F)F)ccc1-c1ccc2cnc(CNC(=O)c3cc(Cl)c4c(c3)S(=O)(=O)[C@@H](F)COC4)cc2n1 [Compound 409]
13 | 14.3 nM | 27.39 | COc1nc(C(F)F)ccc1-c1ccc2cnc(CNC(=O)c3cc(Br)c4c(c3)S(=O)(=O)[C@@H](F)COC4)cc2n1 [Compound 410]
14 | 8.6 nM | 24.27 | O=C(NCc1cc2nc(-c3ccc([C@H](F)CF)c(C4CC4)n3)ccc2cn1)c1cc(F)c2c(c1)S(=O)(=O)[C@@H](F)CCO2 [Compound 411]
15 | 11.9 nM | 21.10 | COCCOc1cnc2c(c1)CCCN2c1ccc2cnc(CNC(=O)c3cc(Cl)c4c(c3)S(=O)(=O)[C@@H](F)COC4)cc2n1 [Compound 412]
16 | 6.2 nM | 27.54 | Cc1cc(C(=O)NCc2cc3nc(-c4ccc(OC(F)F)c(C5CC5)n4)ccc3cn2)cc2c1COC[C@H](F)S2(=O)=O [Compound 413]
17 | 15.1 nM | 22.34 | COCCOc1cnc2c(c1)OCCN2c1ccc2cnc(CNC(=O)c3cc(Cl)c4c(c3)S(=O)(=O)[C@@H](F)CCO4)cc2n1 [Compound 414]
18 | 7.6 nM | 35.99 | O=C(NCc1cc2nc(-c3ccc(OC(F)F)c(C4CC4)n3)ccc2cn1)c1cc(C(F)F)c2c(c1)S(=O)(=O)[C@@H](F)COC2 [Compound 415]
19 | 19.9 nM | 50.12 | CCOc1ccc(-c2ccc3cnc(CNC(=O)c4cc(C(F)F)c5c(c4)S(=O)(=O)[C@@H](F)COC5)cc3n2)nc1C1CC1(F)F (stereo partly shown) [Compound 416]

Row | IC50 | Ratio (MDA-MMTV IC50 (μM) divided by A549-MMTV IC50 (μM)) | SMILES
20 | 27.5 nM | 39.11 | O=C(NCc1cc2nc(-c3cccc(C4CC4)n3)ccc2cn1)c1cc(Br)c2c(c1)S(=O)(=O)[C@@H](F)COC2 [Compound 417]
21 | 23.9 nM | 52.60 | [2H]C1([2H])Oc2c(Cl)cc(C(=O)NCc3cc4nc(-c5cccc(OC(F)F)n5)ccc4cn3)cc2S(=O)(=O)[C@@H](F)C1([2H])[2H] [Compound 418]
22 | 17.4 nM | 28.69 | [2H]C1([2H])Oc2c(Cl)cc(C(=O)NCc3cc4nc(-c5ccc(OC(F)F)c(C6CC6)n5)ccc4cn3)cc2S(=O)(=O)[C@@H](F)C1([2H])[2H] [Compound 419]
23 | 25.7 nM | 24.69 | O=C(NCc1cc2nc(-c3ccnc(C4CC4(F)F)n3)ccc2cn1)c1cc(Cl)c2c(c1)S(=O)(=O)[C@@H](F)COC2 (stereo partly shown) [Compound 420]
24 | 8 nM | 23.62 | [2H]C([2H])([2H])C([2H])([2H])Oc1nc([C@H](C)F)ccc1-c1ccc2cnc(CNC(=O)c3cc(F)c4c(c3)S(=O)(=O)[C@@H](F)CCO4)cc2n1 [Compound 421]
25 | 24.4 nM | 23.20 | COCc1ccc(-c2ccc3cnc(CNC(=O)c4cc(Cl)c5c(c4)S(=O)(=O)[C@@H](F)COC5)cc3n2)nc1C1CC1 [Compound 422]
26 | 10.4 nM | 32.08 | CCOc1nc([C@@H](F)CF)ccc1-c1ccc2cnc(CNC(=O)c3cc(Cl)c4c(c3)S(=O)(=O)[C@@H](F)CCO4)cc2n1 [Compound 423]
27 | 23.7 nM | 31.82 | COCCOc1cnc2c(c1)OCCN2c1ccc2cnc(CNC(=O)c3cc(Br)c4c(c3)S(=O)(=O)[C@@H](F)CCO4)cc2n1 [Compound 424]
28 | 2.3 nM | 24.38 | O=C(NCc1cc2nc(N3CCC(F)(F)c4cc(C5CC5)cnc43)ccc2cn1)c1cc(F)c2c(c1)S(=O)(=O)[C@@H](F)CCO2 [Compound 425]
29 | 10.2 nM | 25.72 | COCCOc1cnc2c(c1)OCCN2c1ccc2cnc(CNC(=O)c3cc(Br)c4c(c3)S(=O)(=O)[C@@H](F)COC4)cc2n1 [Compound 426]
30 | 20.6 nM | 32.84 | COCCOc1cnc2c(c1)CCCN2c1ccc2cnc(CNC(=O)c3cc(Br)c4c(c3)S(=O)(=O)[C@@H](F)COC4)cc2n1 [Compound 427]
31 | 20.3 nM | 26.26 | O=C(NCc1cc2nc(-c3ccc(OCCO)c(C4CC4)n3)ccc2cn1)c1cc(Cl)c2c(c1)S(=O)(=O)[C@@H](F)COC2 [Compound 428]
32 | 16.9 nM | 32.94 | O=C(NCc1cc2nc(-c3cccc(C4CC4)n3)ccc2cn1)c1cc(C(F)F)c2c(c1)S(=O)(=O)[C@@H](F)COC2 [Compound 429]
33 | 8.1 nM | 40.24 | CCOc1nc(C(F)F)ccc1-c1ccc2cnc(CNC(=O)c3cc(C(F)F)c4c(c3)S(=O)(=O)[C@@H](F)COC4)cc2n1 [Compound 430]
34 | 9.5 nM | 31.77 | CCOc1nc(C(F)F)ccc1-c1ccc2cnc(CNC(=O)c3cc(Cl)c4c(c3)S(=O)(=O)[C@@H](F)COC4)cc2n1 [Compound 431]
35 | 13 nM | 25.93 | COCCc1ccc2c(n1)N(c1ccc3cnc(CNC(=O)c4cc(F)c5c(c4)S(=O)(=O)[C@@H](F)CCO5)cc3n1)CCO2 [Compound 432]
36 | 3 nM | 27.74 | [2H]C([2H])([2H])c1cc(C(=O)NCc2cc3nc(-c4cccc(N5C[C@@H](C)O[C@@H](C)C5)n4)ccc3cn2)cc2c1OCC[C@H](F)S2(=O)=O [Compound 433]
37 | 8.7 nM | 41.19 | COc1ccc(-c2ccc3cnc(CNC(=O)c4cc(C(F)F)c5c(c4)S(=O)(=O)[C@@H](F)COC5)cc3n2)nc1C1CC1(F)F (stereo partly shown) [Compound 434]
38 | 23 nM | 25.82 | O=C(NCc1cc2nc(N3CCOc4ccc(C(F)F)nc43)ccc2cn1)c1cc(Br)c2c(c1)S(=O)(=O)[C@@H](F)CCO2 [Compound 435]
